For data set [1] the following is noted: in vivo, cited from earlier work.
The nature of data set [2]: Pharmacokinetics of cromolyn sodium in plasma and lung of male BALB/c mice after a single intraperitoneal injection. The class given is in vivo. The note with it: single IP injection, 10 mg/kg and 100 mg/kg. The method, then:
BALB/c male mice, weighing 22±2 g, were provided by BioLasco Taiwan. All animals were maintained in a well-controlled temperature (20-24° C.) and humidity (30%-70%) environment with 12 hours light/dark cycles. The mice were given free access to a standard lab diet [MFG (Oriental Yeast Co., Ltd., Japan)] and autoclaved tap water.
The solution was administered to the mice by IP injection at concentrations of 10 mg/kg and 100 mg/kg. The dosing volume for both dose strengths was 5 mL/kg.
The mice were sedated under general inhalant anesthesia (3% isoflurane) for blood collection by cardiac puncture. […]
The plasma samples were processed using acetonitrile (ACN) precipitation and analyzed by LC-MS/MS. […] The processed plasma samples were stored at −70° C. until receiving LC-MS/MS analysis, at which time peak areas were recorded, and the concentrations of the test substance in the unknown plasma samples were determined using the respective calibration curve. The reportable linear range of the assay was determined, along with the lower limit of quantitation (LLQ).
Each lung was homogenized in 1.5 mL cold phosphate-buffered saline (PBS) at pH 7.4 for 10 seconds on ice. The lung homogenate was centrifuged at 5,400×g for 15 minutes at 4° C., and the supernatant was subsequently processed using ACN precipitation and analyzed by LC-MS/MS. […]

Data set [3] can be described thus: PK-01: pharmacokinetics and relative bioavailability of single doses in healthy subjects. The note with it: for AUC(0-inf): human, plasma, inhaled, 40 mg, 40 mg single dose. The class given is in vivo, human.
Description: This was a Phase 1, randomized, open-label, single-centre, dose-ranging, cross-over study conducted in a total of 12 healthy adult subjects of 18-45 years of age.
All study subjects received each study treatment in the morning (at 8:00 am, +/−30 minutes) as a single dose treatment. Prior to each dosing day, subjects were admitted to the clinic in the morning for baseline (pre-dose) assessments. Subjects were required to remain in the clinic for 12 h after study drug administration on each dosing day. Treatment Visits were separated by a washout period of 2 to 5 days.
The duration of the study was one day.
Urine DSCG levels were measured for total DSCG excretion in the urine, and the bioavailability of the DSCG was calculated from the measured levels.
Pharmacokinetic parameters and plasma concentrations are listed and summarized. The summary statistics are presented as the geometric mean, arithmetic mean, arithmetic standard deviation (SD), min, median, max and n. The geometric statistics are not presented for Tmax. Analysis of variance (ANOVA) including terms for subject and treatment are used to calculate point estimates, and confidence intervals (CI) for treatment differences with respect to PK parameters (90% CI) are calculated.

Read-outs that look alike come from different tables or passages of the source.

One may read the AUC(0-inf) as total exposure, with the tail of the curve extrapolated. Read a high AUC(0-inf) as high exposure.

Consider `O=C([O-])c1cc(=O)c2c(OCC(O)COc3cccc4oc(C(=O)O)cc(=O)c34)cccc2o1.[Na+]` [cromolyn sodium, disodium 5,5′-(2-hydroxypropane-1,3-diyl)bis(oxy)bis(4-oxo-4H-chromene-2-carboxylate)], for which the oral bioavailability entry in data set [1] (listed as cromolyn) is “about 1%”; in data set [1], roughly 1%. Also, the “exposure of cromolyn sodium in the plasma and lungs” value in data set [2] was “Significant exposure”. For the same molecule, the AUC(0-inf) was 338 ng·h/mL in data set [3] (eFlow 30 L) and 212 ng·h/mL in data set [3] (eFlow 40 L). Moreover, the “lung deposition with the 30 L device compared with the 40 L device, indicated by AUC” value in data set [3] (same dose (40 mg)) is reported as “surprisingly higher”.

The record behind these values is patent US10561635B2, “Cromolyn compositions for treatment of pulmonary fibrosis” (Respivant Sciences, GmbH, priority 2016, dated 2020).
